We go through 2 compounds from ChEMBL document CHEMBL4813930, “Cytotoxic Manoalide-Type Sesterterpenes from the Sponge Luffariella variabilis Collected in the South China Sea” (J Nat Prod, 2021).

Test [1] has as its system L02. Put plainly: Cytotoxicity against human L02 cells by SRB assay. Type of test: cell-based. (In general: In SRB staining, fixed cells bind dye roughly in proportion to their protein.)
The nature of test [2]: Cytotoxicity against human NCI-H69AR cells by SRB assay. The class given is functional, cell-based.
For test [3], the system named is K562. In words: Cytotoxicity against human K562 cells by MTT assay. Type of test: functional, cell-based. In general terms: Tetrazolium dyes change colour on reduction, which living cells bring about.
Test [4] relates to MDA-MB-231. In words: Cytotoxicity against human MDA-MB-231 cells by SRB assay. The class given is functional, cell-based.
Test [5] relates to ASPC1. Put plainly: Cytotoxicity against human ASPC1 cells by SRB assay. The class given is functional, cell-based.

Some results are limits rather than exact numbers.

As a reminder, the IC50 is the concentration that gives 50% inhibition. The low end stands for greater potency, the high end for weaker potency. For `COc1cccc2c1C(=O)c1c(O)c3c(c(O)c1C2=O)C[C@@](O)(C(=O)CO)C[C@@H]3O[C@H]1C[C@H](N)[C@H](O)[C@H](C)O1` [DOXORUBICIN], the IC50 in test [1], in test [2], in test [3], in test [4] and in test [5] was under 1 µM in each case.

For `COC(=O)Cc1cc(CC/C=C(\C)CC/C=C(\C)CCC=C(C)C)ccc1O`, the IC50 in test [1] is over 30 µM; in test [2] it was over 30 µM; in test [3], 15 µM; in test [4], over 30 µM; in test [5] it was over 30 µM.
